Assays:
diabetic (db/db) mice = assay: Electrophysiology (CMAP, NCV) in diabetic mice; assay type: in vivo, mouse; settings: after 30 days of treatment
Experimental: Standard electroneurography was performed before, during and after TRO 19622 drug treatment on CMT1A rats and diabetic mice that were anesthetized with 3% isoflurane. A pair of steel needle electrodes (AD Instruments, MLA1302, Oxford, UK) was placed subcutaneously along the nerve at sciatic notch (proximal stimulation). A second pair of electrodes was placed along the tibial nerve above the ankle (distal stimulation). Supramaximal square wave pulses lasting 10 ms and 1 mA for mice and 3.6 mA for rats were delivered using a PowerLab 26T (AD Instruments, Oxford, UK). Compound muscle action potential (CMAP) was recorded from the intrinsic foot muscles using steel electrodes. Both amplitudes and latencies of CMAP were determined. The distance between the two sites of stimulation was measured alongside the skin surface with fully extended legs, and nerve conduction velocities (NCVs) were calculated automatically from sciatic nerve latency measurements (for further details Fledrich et al., 2014^10).
As previously reported^37, 38, we observed a reduction of the nerve conduction velocity in db/db diabetic mice with no change in the amplitude of the compound of action potentials (CMAP).

phospho-c-jun [1] = assay: Immunohistochemistry of nuclear phospho-c-jun in mSC after nerve crush or MJ; assay type: in vivo, mouse; settings: immunohistochemistry; TRO19622 30 minutes prior crush
Experimental: The dissected nerve was washed in L15 medium, fixed in Zamboni's fixative (Stefanini et al., 1967^4) for 10 min at room temperature, washed in PBS, and incubated in successive glycerol baths (15, 45, 60, 66% in PBS) for 18 to 24 h each before freezing at −20° C. The nerves were cut in small pieces in 66% glycerol and the perineurium sheet removed. Small bundles of fibers were teased in double-distilled water on Superfrost slides, dried overnight at room temperature, and the slides stored at −20° C. For immunostaining, the teased fibers were incubated for 1 h at room temperature in blocking solution (10% goat serum, 0.2% TritonX100, and 0.01% sodium azide in PBS). Then, the samples were then incubated with anti-ECCD2 primary mouse antibody (1/100, BD biosciences, Ref. 610181), anti-phosphoS63-c-jun primary mouse antibody (1/200, BD Biosciences, Ref. 558036), anti-c-jun primary mouse antibody (1/200, BD Biosciences, Ref. 610326), anti-VDAC primary rabbit antibody (1/100, Cell Signaling, Ref. 4866) or/and MitoTracker Red (1/1000, Molecular Probes, Ref. M7515) in blocking solution overnight at 4° C. The next day, the samples were washed in PBS and incubated for 1 h at room temperature with secondary donkey antibodies coupled to Alexa488, Alexa 594 or Alexa647 (1/1600, Molecular probes) and TO-PRO-3 iodide (50 μM, Invitroge, Ref. T3605). Finally the samples were washed in PBS and mounted in Immu-mount (Thermo Scientific). Images were acquired at room temperature using a 20× or 40× objective, a Zeiss confocal microscope LSM710, and its associated software.
(§1) TRO19622 drug (Tocris bioscience, Ref. 2906) was diluted in ethanol to 20 mM and then, the solution was diluted in sterile PBS to 20 μM. TRO19622 treatments were realized by 3 mg/kg intraperitoneal (IP) injections of 20 mM solution or by intra sciatic nerve injections of 2 μl of drug solution 2 μM using a Hamilton syringe or a glass needle in sterile conditions 30 minutes before multiphoton image acquisitions or immunohistochemistry and demyelination studies respectively. Methyl jasmonate drug (Sigma-Aldrich, Ref. 392707) was diluted in 1 ml of sterile PBS to 1M or 3M. Methyl jasmonate treatments were realized by intra sciatic nerve injections of 1 μl of drug solution using a glass needle and micromanipulator in sterile conditions following the same virus injections procedure (see in vivo virus injection in the sciatic nerve method) two hours before multiphoton image acquisition. […] All drug concentrations were previously evaluated by Bordet et al, 2007^5; Goldin et al, 2008^6; Sharov et al, 2007^7.
To go further we also selectively silenced VDAC1 in mSC and measured the expression level of nuclear phospho-c-jun by immunohistochemistry after nerve crush. […]

[2] = tested on: myelinating Schwann cells; assay: mSC demyelination morphology (confocal microscopy) four days after nerve crush; assay type: in vivo, mouse; settings: intraperitoneal or intranerve injections before and daily after nerve injury
Experimental: Mice were anesthetized with isoflurane inhalation and placed under a Stemi2000 microscope (Zeiss). Incision area was shaved and cleaned using betadine solution. After incision, the gluteus superficialis and biceps femoris muscles were separated to reveal the cavity traversed by the sciatic nerve. The nerve was lift out using spatula and a thin glass needle filled with viral solution (8 μl) was introduced into the nerve with a micromanipulator. This solution was injected over 30 min with short pressure pulses using a Picospritzer III (Parker Hannifin) coupled to a pulse generator. After injection, the nerve was replaced into the cavity, the muscles were readjusted, and the wound was closed using clips (for further details see Gonzalez et al., 2014^3).
as §1
Finally we also investigated the demyelination using typical defects induced in the cellular morphology of mSC. Nerves expressing control or VDAC1 shRNAs were crushed to induce demyelination and four days later, when demyelination is maximal, we analyzed the morphology of VDAC1-silenced mSC using confocal microscopy as described previously^19. mSC display long homogenous noodle-like morphology with a regular diameter but during demyelination, they acquire a heterogeneous morphology often alterning large structures (myelin ovoids) with thin processes and their extremities split in fine extensions.

phospho-c-jun [3] = assay: Immunohistochemistry of phospho-c-jun in mSC of CMT1A rats; assay type: in vivo, rat; settings: compared to vehicle
Experimental: The dissected nerve was washed in L15 medium, fixed in Zamboni's fixative (Stefanini et al., 1967^4) for 10 min at room temperature, washed in PBS, and incubated in successive glycerol baths (15, 45, 60, 66% in PBS) for 18 to 24 h each before freezing at −20° C. The nerves were cut in small pieces in 66% glycerol and the perineurium sheet removed. Small bundles of fibers were teased in double-distilled water on Superfrost slides, dried overnight at room temperature, and the slides stored at −20° C. For immunostaining, the teased fibers were incubated for 1 h at room temperature in blocking solution (10% goat serum, 0.2% TritonX100, and 0.01% sodium azide in PBS). […]
While demyelinating diabetes peripheral neuropathy is a commonly acquired disease, demyelination is also the characteristic feature of a large number of inherited diseases called Charcot-Marie-Tooth diseases (CMT). […] Twelve weeks old CMT1A rats were daily treated with TRO19622 for 15 or 30 days and one day or two months after treatment, we analyzed MAPK demyelination pathways by western blot. […] Then we analyzed phospho-c-jun activation in mSC using immunohistochemistry. […] Next, we measured Schwann cell demyelination and g-ratio by toluidine blue staining on semi-thin sciatic nerve sections and on thin sections using electron microscopy.

CC(C)CCC[C@@H](C)[C@H]1CC[C@H]2[C@@H]3CCC4=C/C(=N\O)CC[C@]4(C)[C@H]3CC[C@]12C [TRO19622, (NZ)—N-[(8S,9S,10R,13R,14S,17R)-10,13-dimethyl-17-[(2R)-6-methylheptan-2-yl]-1,2,6,7,8,9,11,12,14,15,16,17-dodecahydrocyclopenta[a]phenanthren-3-ylidene]hydroxylamine]
CMAP amplitude (diabetic (db/db) mice): without change | nerve conduction velocity (diabetic (db/db) mice): significantly increased to reach control mice velocity | nuclear phospho-c-jun in mSC after nerve crush (phospho-c-jun [1]): strongly reduced | number of demyelinating cells after nerve injury [2]: strongly reduced | phospho-c-jun amount in the mSC nucleus (phospho-c-jun [3]): strongly reduced
